Data from article PMC9329436, “Optimization of the 4-anilinoquin(az)oline scaffold as epidermal growth factor receptor (EGFR) inhibitors for chordoma utilizing a toxicology profiling assay platform” (Scientific Reports, 2022).

Test system: HL60 cells
Assay: AsedaSciences SYSTEMETRIC Cell Health Screen (flow cytometry toxicity profiling)
Conditions: HL60, 4 h, 5 nM–100 µM; for CC: Cell Cycle score / CM: Cell morphology score / CMI: Cell membrane integrity score / MMP: Mitochondrial membrane depolarization score / ROS: Reactive superoxide species score / GSH: Glutathione score / NMI1: Nuclear membrane integrity 1 score / NMI2: Nuclear membrane integrity 2 score: probability 0–1, n = 2; for CHI: Cell Health Index: probability (0–1) of high-risk class, n = 2
Excerpt: To prioritize further optimization, in addition to cellular potency, we utilized the AsedaSciences® […]® Cell Health Screen. This live cell flow cytometry (FC) screen was developed to assess human safety risk for candidate pharmaceutical small molecules at the early hit-to-lead stage of development. The screen works by estimating the risk using a supervised machine learning (ML) classifier to assess a multiparametric cellular stress phenotype, produced by the test compound, relative to a training set of known compounds (Table S1). This screen has been designed for early pipeline risk estimation regardless of pharmaceutical class/disease type, so it uses HL60 as the reporter cell line.
The ML classifier was trained with 300 historically known compounds (on market or withdrawn drugs, research compounds, etc.), which were divided into two outcome classes based upon literature, clinical trials, and market histories where applicable. This external curation informed an outcome of “high-risk” or “low-risk”. All 300 compounds were also processed through the automated FC screen, populating each of the two classes with frequency distributions of empirical cell-based phenotypes.
To estimate human safety risk for an unknown compound, the ML classifier assesses the similarity of the test compound’s cell-based phenotype to the distributions of phenotypes in the two outcome classes. […] Phenotypes are derived from twelve FC detection parameters, including light scatter and a series of fluorescent physiological reporter dyes, that track cell stress-related endpoints.
To produce the Cell Health Index, the ML classifier uses all twelve FC parameters simultaneously in a multidimensional logistic regression model, so the CHI contains the most predictive power. In addition to the Cell Health Index, Table 4 also reports probability scores for eight cell stress-related endpoints. These scores are produced individually by passing information to the ML classifier relating to parameters that inform that endpoint. For example, to produce the cell morphology (CM) score, the ML classifier only uses the FC detection parameters for forward scatter (informing change in cell diameter) and side scatter (informing change in optical granularity of the cell) to inform the model. Together, these eight endpoints provide a “biological fingerprint”, allowing assessment of the degree to which SAR series members behave differently across endpoints.
In a 384-well platform, HL60 cells were exposed to a 10-step, 3 × dilution series of each test compound (5 nM–100 µM) for 4 h at 37 °C with 5% CO2. Each dilution series was screened in duplicate, occupying a total of 20 wells, allowing 16 test compounds to be assayed per plate. Each row contained one positive and one negative control well, for a total of 16 replicate positive/negative control pairs on each assay plate. Compound formatting, cell deposition, and dye application were performed robotically so that final assay conditions comprised 100,000 cells in a 40 µL volume. After the 4 h compound exposure, cells were immediately stained with a panel of fluorescent dyes that report physiological signatures of both mitochondrial dysfunction and gross cell stress. Fluorescence and forward/side-scatter data were collected using automated FC with no gating. FC data are processed by an automated algorithm for producing quality control measures and ML classification of compound phenotypes. • 2. HL60 cell culture production
HL60 cells were produced as suspension cultures in glass 850 cm^2 roller bottles with vented caps, at 1 RPM, 5% CO2, and 37 °C. […] Culture density was maintained at or below 1 × 10^6 cells/mL.

| SMILES | CC: Cell Cycle score | CM: Cell morphology score | CMI: Cell membrane integrity score | MMP: Mitochondrial membrane depolarization score | ROS: Reactive superoxide species score | GSH: Glutathione score | NMI1: Nuclear membrane integrity 1 score | NMI2: Nuclear membrane integrity 2 score | CHI: Cell Health Index |
| --- | --- | --- | --- | --- | --- | --- | --- | --- | --- |
| CCCCc1oc2ccccc2c1C(=O)c1cc(I)c(OCCN(CC)CC)c(I)c1 [Amiodarone, reference compound] | 0.96 | 0.97 | 0.80 | 0.87 | 0.19 | – | – | – | – |
| COc1cc2ncnc(Nc3ccc(F)c(Cl)c3)c2cc1OCCCN1CCOCC1 [Gefitinib, reference compound] | 0.93 | 1.00 | 0.99 | 0.99 | 0.93 | 0.97 | 0.61 | 0.94 | 0.80 |
| Cc1cn([C@@H]2C[C@@H](O)[C@H](CO)O2)c(=O)[nH]c1=O [Telbivudine, reference compound] | 0.020 | 0.010 | 0.040 | 0.010 | 0.030 | 0.070 | 0.11 | 0.050 | – |
| CS(=O)(=O)CCNCc1ccc(-c2ccc3ncnc(Nc4ccc(OCc5cccc(F)c5)c(Cl)c4)c3c2)o1 [Lapatinib, reference compound] | 0.93 | 1.00 | 1.00 | 1.00 | 0.90 | 0.96 | 0.97 | 0.92 | 0.89 |
| Clc1cccc(Cl)c1N=C1NCCN1 [Clonidine, reference compound] | 0.060 | 0.00 | 0.030 | 0.010 | 0.040 | 0.10 | 0.15 | 0.040 | 0.14 |
| O=C(O)c1cc(/N=N/c2ccc(S(=O)(=O)Nc3ccccn3)cc2)ccc1O [Sulfasalazine, reference compound] | 0.10 | 0.010 | 0.060 | 0.31 | 0.090 | 0.030 | 0.14 | 0.63 | – |
| [H]/N=C(/N)N/C(=N/[H])NCCc1ccccc1 [Phenformin, reference compound] | 0.28 | 0.74 | 0.27 | 0.37 | 0.77 | 0.17 | 0.82 | 0.080 | 0.41 |
| CC/C(=C(\c1ccccc1)c1ccc(OCCN(C)C)cc1)c1ccccc1 [Tamoxifen, reference compound] | 0.98 | 1.00 | 1.00 | 1.00 | 1.00 | 1.00 | 1.00 | 0.99 | – |
| COc1cc2c(Nc3ccc(Cl)c(Cl)c3F)ncnc2cc1OC[C@@H]1C[C@@H]2CN(C)C[C@@H]2C1 [Tesevatinib, reference compound] | 0.96 | 1.00 | 1.00 | 1.00 | 1.00 | 1.00 | 0.91 | 0.99 | 0.92 |
| CC(C(=O)O)c1cccc(C(=O)c2ccccc2)c1 (centres unmarked) [Ketoprofen, reference compound] | 0.050 | 0.00 | 0.030 | 0.010 | 0.18 | 0.010 | – | – | – |
| O=C1CC2(CCCC2)CC(=O)N1CCCCN1CCN(c2ncccn2)CC1 [Buspirone, reference compound] | 0.11 | 0.060 | 0.040 | 0.020 | 0.05 | 0.080 | 0.070 | 0.040 | 0.22 |
| O=C(O)CCc1nc(-c2ccccc2)c(-c2ccccc2)o1 [Oxaprozin, reference compound] | 0.060 | 0.00 | 0.090 | 0.000 | 0.16 | 0.030 | 0.040 | 0.12 | – |
| CN(CCOc1ccc(CC2SC(=O)NC2=O)cc1)c1ccccn1 (centres unmarked) [Rosiglitazone, reference compound] | 0.27 | 0.49 | 0.23 | 0.050 | 0.070 | 0.53 | 0.23 | 0.27 | 0.37 |
| CCOC(=O)N1CCC(=C2c3ccc(Cl)cc3CCc3cccnc32)CC1 [Loratadine, reference compound] | 0.84 | 0.36 | 0.70 | 0.65 | 0.85 | – | – | – | – |
| CC1(C)NC(=O)N(c2ccc([N+](=O)[O-])c(C(F)(F)F)c2)C1=O [Nilutamide, reference compound] | 0.68 | 0.040 | 0.060 | 0.42 | 0.090 | 0.040 | 0.21 | 0.52 | 0.34 |
| CN(C)CCOC(c1ccccc1)c1ccccc1 [Diphenhydramine, reference compound] | 0.030 | 0.010 | 0.030 | 0.030 | 0.040 | – | – | – | – |
| Cc1ccnc2c1NC(=O)c1cccnc1N2C1CC1 [Nevirapine, reference compound] | 0.070 | 0.020 | 0.050 | 0.010 | 0.28 | 0.030 | 0.020 | 0.040 | 0.18 |
